# Measurements taken from paper PMC8389037, “Design, Synthesis and Antifungal Activity of Stapled Aurein1.2 Peptides” (Antibiotics, 2021).
# Where a SMILES comes first, the peptide text is derived from it. Bridges are numbered along the chain shown (N, C = ends). [ ]: non-standard residue; d: D form. S5 = C=CCCC[C@](C)(N)C(=O)O
# Tests used:
# C. glabrata ATCC 1182 = assay: microbe, parasite or virus in culture
# Procedure: (§1) The in vitro antifungal activities of the target peptides were evaluated according to protocols from the CLSI. The broth microdilution method was used to determine the minimum inhibitory concentration (MIC) of the target peptides in 96-well plates. Fluconazole was used as a reference drug.
# (§2) Clinical isolates of C. albicans SC5314, 901, 904, C. tropicalis ATCC20026 and clinical isolate 895, C. glabrata ATCC1182 and clinical isolate 896, C. krusei ATCC2340, and C. parapsilosis ATCC22010 are from the collection library in the Drug Discovery and Development Center, Naval Medical University, Shanghai, China. C. auris clinical isolates are provided by Linqi Wang (Institute of Microbiology, Chinese Academy of Sciences) and Changbin Chen (Institut Pasteur of Shanghai, Chinese Academy of Sciences). All strains were cultured in YPD (1% yeast extract, 2% peptone, and 2% glucose) liquid medium overnight at 30 °C with shaking at 220 rpm.
# (§3) The MICs of chemicals against all strains were determined by the micro broth dilution method according to the Clinical and Laboratory Standards Institute (Wayne PA, Reference Method for Broth Dilution Antifungal Susceptibility Testing of yeasts, approved Standard M27-A3, 3 rd ed; Clinical and Laboratory Standards Institute (CLSI): USA, 2008). The initial concentration of fungal suspension in RPMI 1640 medium was 3–5 × 10^3 colonies forming unit (CFU)/mL, which was added to 96-well plates. Peptides were prepared in dimethyl sulfoxide (DMSO) with an initial stored concentration of 6.4 mg/mL. Serial dilutions were made based on the CLSI M27 guide to obtaining the final concentrations ranging from 0.125 to 64 μg/mL for fluconazole and 0.25 to 128 μg/mL for peptides […]. The plates were incubated at 30 °C for 48 h. Optical density was measured at 630 nm, and background optical densities were subtracted from that of each well. The definition of MIC is the lowest concentration at which 80% of tested strains cannot grow.
# C. albicans 901 = assay: microbe, parasite or virus in culture
# Procedure: as §1, §2, §3
# C. auris 919 = assay: microbe, parasite or virus in culture
# Procedure: as §1, §2, §3
# C. albicans SC5314 = assay: microbe, parasite or virus in culture
# Procedure: as §1, §2, §3
# C. krusei ATCC 2340 = assay: microbe, parasite or virus in culture
# Procedure: as §1, §2, §3
# C. albicans 904 = assay: microbe, parasite or virus in culture
# Procedure: as §1, §2, §3
# [1] = system: C. parapsilosis ATCC 22010; assay: microbe, parasite or virus in culture
# Procedure: as §1, §2, §3
# C. tropicalis ATCC 20026 = assay: microbe, parasite or virus in culture
# Procedure: as §1, §2, §3
# C. tropicalis 895 = assay: microbe, parasite or virus in culture
# Procedure: as §1, §2, §3
# C. auris 918 = assay: microbe, parasite or virus in culture
# Procedure: as §1, §2, §3
# C. glabrata 896 = assay: microbe, parasite or virus in culture
# Procedure: as §1, §2, §3
# chymotrypsin = assay: Chymotrypsin digestion assay (proteolytic stability); settings: chymotrypsin 10 ng/µL in PBS 50 mM, 2 mM CaCl2, pH 7.4, room temperature; 130 µL of 1 mM DMSO peptide stock + 910 µL enzyme; sampled 0, 0.5, 1.5, 2, 4.5 h; HPLC at 214 nm
# Procedure: Their susceptibility toward chymotrypsin degradation was tested in pH 7.4 PBS buffer at room temperature, containing 2 mM of CaCl2, and the percentages of remaining peptides were determined by HPLC. […] The corresponding HPLC charts for the determination of peptide residues are in the Supplementary Material.
# Figure 4 Proteolytic stability of Aurein1.2, Sau-1, Sau-2, Sau-5, and Sau-9. They were dissolved in chymotrypsin solution (10 ng/μL, 50 mM, containing 2 mM of CaCl2, pH = 7.4). The percentages of the remaining peptides were monitored by HPLC.
# Aurein1.2, Sau-1, Sau-2, Sau-5, and Sau-9, were dissolved in dimethyl sulfoxide to prepare a reserve solution with a concentration of 1 mM. Chymotrypsin was dissolved in PBS buffer (50 mM, containing 2 mM of CaCl2, pH = 7.4) to obtain a final concentration of 10 ng/µL. Then the 130 µL peptide solutions were incubated with 910 µL of chymotrypsin solution at room temperature. Then 130 µL of digestion mixture was taken at 0, 0.5, 1.5, 2 or 4.5 h, and then quenched with 50 µL of hydrochloric acid (1 mM). High-performance liquid chromatography (HPLC) was used to detect the residues of linear peptides and stapled Aurein1.2 peptides at 214 nm at a different time.
# [2] = Helicity by circular dichroism; format: physicochemical; settings: CD, 50 μM peptide in phosphate buffer/trifluoroethanol (7:3), 20 °C, calculated on [θ]222
# Procedure: We use circular dichroism (CD) spectroscopy to probe the structural changes of Aurein1.2. According to the formula for calculating the helix reported in the previous relevant literature, we calculated the helicities of Aurein1.2 and the stapled peptides.
# Figure 3 CD spectra of Aurein1.2 and its analogues. The peptides were dissolved in a solution of phosphate buffer and trifluoroethanol (7:3) and reached a concentration of 50 μM. The helicities of these peptides were calculated on the [θ]222. TEXT PRINTED IN THE PICTURE: Aurein1.2: helicity: 56.6% | Sau-1: helicity: 60.2% | Sau-2: helicity: 52.5% | Sau-3: helicity: 72.3% | Sau-4: helicity: 73.5% | Sau-5: helicity: 61.0% | Sau-6: helicity: 49.9% | Sau-7: helicity: 65.0% | Sau-8: helicity: 83.1% | Sau-9: helicity: 67.8%
# The linear peptide and the stapled Aurein1.2 peptides were dissolved to form a sample with a concentration of 50 μM. The solvent consists of phosphate-buffered solution and trifluoroethanol (7:3). We used a […] quartz tube to obtain CD spectra on a Jasco-715 spectrophotometer at 20 °C. The measurement parameters were set up as follows: wavelength, 190–255 nm; speed, 20 nm min^−1; step resolution, 1.0 nm. And we accumulated the data twice. All spectral data were subtracted from the background. […] The helicity of each peptide was calculated according to the equation in the literature.
Compound,"Minimum inhibitory concentration (MIC) (C. glabrata ATCC 1182; ATCC 1182, 48 h) [µg/mL]","Minimum inhibitory concentration (MIC) (C. albicans 901; 901, 48 h) [µg/mL]","Minimum inhibitory concentration (MIC) (C. auris 919; 919, 48 h) [µg/mL]","Minimum inhibitory concentration (MIC) (C. albicans SC5314; SC5314, 48 h) [µg/mL]","Minimum inhibitory concentration (MIC) (C. krusei ATCC 2340; ATCC 2340, 48 h) [µg/mL]","Minimum inhibitory concentration (MIC) (C. albicans 904; 904, 48 h) [µg/mL]","Minimum inhibitory concentration (MIC) ([1]; ATCC 22010, 48 h) [µg/mL]","Minimum inhibitory concentration (MIC) (C. tropicalis ATCC 20026; ATCC 20026, 48 h) [µg/mL]","Minimum inhibitory concentration (MIC) (C. tropicalis 895; 895, 48 h) [µg/mL]","Minimum inhibitory concentration (MIC) (C. auris 918; 918, 48 h) [µg/mL]","Minimum inhibitory concentration (MIC) (C. glabrata 896; 896, 48 h) [µg/mL]","proteolytic stability, remaining peptide (chymotrypsin)",further results
CC[C@H](C)[C@@H]1NC(=O)[C@@](C)(NC(=O)[C@H](CC(=O)O)NC(=O)[C@H](Cc2ccccc2)NC(=O)[C@H](CC(C)C)NC(=O)CNC(C)=O)CCCC=CCCC[C@@](C)(C(=O)N[C@@H](C)C(=O)N[C@@H](CCC(=O)O)C(=O)N[C@@H](CO)C(=O)N[C@@H](Cc2ccccc2)C(N)=O)NC(=O)[C@H](CCCCN)NC(=O)[C@H](CCCCN)NC1=O [Sau-5] (Ac-GLFD[S5]IKK[S5]AESF-NH2; staple 5-9),>128,>128,>128,16,>128,>128,>128,>128,16,>128,>128,remain relatively stable over time,
CC[C@H](C)[C@H](NC(=O)[C@H](CC(=O)O)NC(=O)[C@H](Cc1ccccc1)NC(=O)[C@H](CC(C)C)NC(=O)CNC(C)=O)C(=O)N[C@H](C(=O)N[C@@H](CCCCN)C(=O)N[C@@H](CCCCN)C(=O)N[C@@]1(C)CCCC=CCCC[C@@](C)(C(N)=O)NC(=O)[C@H](CO)NC(=O)[C@H](CCC(=O)O)NC(=O)[C@H](C)NC1=O)[C@@H](C)CC [Sau-9] (Ac-GLFDIIKK[S5]AES[S5]-NH2; staple 9-13),>128,>128,>128,>64,>128,>128,>128,>128,32,>128,>128,,
Ac-GLFDIIKKIAESF-NH2 [reference compound],,,,,,,,,,,,disintegrated almost completely by 4.5 h,"helicity [2]: 56.6%; Minimum inhibitory concentration (MIC) (C. glabrata ATCC 1182; C. glabrata ATCC 1182, RPMI 1640, 30 °C, 48 h, OD 630 nm, 80% inhibition): >128 µg/mL; Minimum inhibitory concentration (MIC) (C. albicans 901; C. albicans 901, fluconazole-resistant clinical isolate, RPMI 1640, 30 °C, 48 h, OD 630 nm, 80% inhibition): >128 µg/mL; Minimum inhibitory concentration (MIC) (C. auris 919; C. auris clinical isolate 919, RPMI 1640, 30 °C, 48 h, OD 630 nm, 80% inhibition): >128 µg/mL; Minimum inhibitory concentration (MIC) (C. albicans SC5314; C. albicans SC5314, RPMI 1640, 3–5 × 10^3 CFU/mL, 30 °C, 48 h, OD 630 nm, 80% inhibition): >64 µg/mL; Minimum inhibitory concentration (MIC) (C. krusei ATCC 2340; C. krusei ATCC 2340, RPMI 1640, 30 °C, 48 h, OD 630 nm, 80% inhibition): >128 µg/mL; Minimum inhibitory concentration (MIC) (C. albicans 904; C. albicans 904, RPMI 1640, 30 °C, 48 h, OD 630 nm, 80% inhibition): >128 µg/mL; Minimum inhibitory concentration (MIC) ([1]; C. parapsilosis ATCC 22010, RPMI 1640, 30 °C, 48 h, OD 630 nm, 80% inhibition): >128 µg/mL; Minimum inhibitory concentration (MIC) (C. tropicalis ATCC 20026; C. tropicalis ATCC 20026, RPMI 1640, 30 °C, 48 h, OD 630 nm, 80% inhibition): >128 µg/mL; Minimum inhibitory concentration (MIC) (C. tropicalis 895; C. tropicalis 895, fluconazole-resistant clinical isolate, RPMI 1640, 30 °C, 48 h, OD 630 nm, 80% inhibition): >128 µg/mL; Minimum inhibitory concentration (MIC) (C. auris 918; C. auris clinical isolate 918, RPMI 1640, 30 °C, 48 h, OD 630 nm, 80% inhibition): >128 µg/mL; Minimum inhibitory concentration (MIC) (C. glabrata 896; C. glabrata clinical isolate 896, RPMI 1640, 30 °C, 48 h, OD 630 nm, 80% inhibition): >128 µg/mL"
